In data set [1] the test system is Mice. Briefly: Permanent middle carotid artery occlusion (pMCAO) model of stroke. It is filed as in vivo. The method, then: FIGS. 9A-9E: Evaluation of the furoxan 31b. […] Latency to fall was normalized to 4 h post-infarct mean for each group and is represented as mean and s.e.m. (n=12). Analyzed using one way ANOVA analysis with Tukey's post-hoc test. […] Each of the seven tests included in the 28-point NDS was graded from 0-4, with higher scores indicating severe deficits (n=12). Compared using unpaired t-test. […] Compared using unpaired t-test. For all data, *=p<0.05, **=p<0.01, ***=p<0.001.
31b (20 mg/kg, i.p.) was administered once daily for 6 days beginning 12 hr after permanent MCAO (pMCAO, FIG. 9A). pMCAO was chosen rather than 2-VO because pMCAO is much simpler and more reliable (pMCAO-no loss of animals vs 2-VO˜30% lethality 7 days post-op). Ultimately, this model allowed for the provision of evidence of neuroprotective efficacy and effect on BDNF.
Locomotor activity was evaluated by means of a rotarod task by a person blinded to the treatment groups. Mice were placed on a horizontal rod (Columbus Instruments, OH) that was made to rotate at 1 rpm with an acceleration rate of 1 rpm every 10 s until the animal fell from the rod. Each animal was tested three times per trial. All the animals were trained on the rotarod assembly prior to surgery. The duration for which each animal was able to stay on the accelerating rod was recorded as the latency to fall and registered manually. Locomotor activity was monitored 4 h before, 24 h, postsurgery and 7 days after p-MCAO surgery Grip strength was evaluated by holding the mice by tails and placing their forelimbs on a specially designed pull bar assemblies (Grip strength meter, Columbus Instruments, OH). […] Each animal was tested three times per trial at 4 h before, 2 and 7 days after p-MCAO surgery. NDS were evaluated by an optimized 28-point score pattern. A person blinded to the treatment evaluated NDS 7 days after p-MCAO; the evaluation included both sensory and motor deficits, such as body symmetry, gait, climbing, circling behavior, front limb symmetry, compulsory circling, and whisker response. Each of the seven tests included in the 28-point NDS was graded from 0 to 4, with higher scores indicating severe deficits. Animals from all the groups were euthanized 7 days after p-MCAO. Brains were dissected out and sliced into five 2-mm-thick coronal sections before incubating in 1% triphenyltetrazolium chloride (TTC) (Sigma Co., MI). The infarct area was estimated from five slices of each brain, measuring rostral and caudal sides of each individual slice in conjunction with the thickness and expressed as a percentage of the volume of the contralateral hemisphere. A person blinded to the treatment groups measured the infarct volume with the help of ImageJ software provided by NIH.

The nature of data set [2]: Rat liver microsome metabolic stability. It counts as in vitro ADME. As to conditions: rat liver microsomes, read-out: RLM t1/2. The method, then:
7.4) at 37° C. (FIG. 5A). Incubations were placed in a temperature controlled HPLC autosampler and aliquots are analyzed by HPLC-UVvis periodically for 2-24 hr. Percent furoxan remaining was determined based on the area under the curve (AUC) of the HPLC UV-absorbance spectrum. Similarly, rat liver microsomes were incubated with 31b in the presence or absence of NADPH to determine microsomal stability (FIG. 5B). Warfarin and verapamil were used as slow and fast metabolizing controls.
Metabolic stability is an important parameter for determining the drug-like properties of a molecule, especially when trying to develop attenuated furoxans which require reaction with thiols to produce an effect. The metabolism of 31b in the presence of rat liver microsomes (RLM) was studied. Verapamil and warfarin were used as well-characterized controls. […]
HPLC method: solvents, H2O [0.1% FA]—solvent A; MeOH [0.1% FA]—solvent B; flow rate 1.0 mL/min. […] As described above, thiol reactivity was analyzed via incubations containing the furoxan (250 μM) in the presence or absence of excess (5 mM) cysteine (or N-acetylcysteine [NAc]) in PBS (50 mM, pH 7.4) at 37° C. Incubations were placed in a temperature controlled HPLC autosampler and aliquots were analyzed by HPLC-UVvis periodically for 2-24 hr. Percent furoxan remaining was determined based on the area under the curve (AUC) of the HPLC UV-absorbance spectrum. […]
A general note: Microsomes from liver hold many membrane-bound enzymes, among them those of drug oxidation.

For data set [3], the system named is Male C57BL/6 mice. Briefly: Step-through passive avoidance (STPA), scopolamine-induced amnesia. It is filed as in vivo. As to the method: FIGS. 4A-4B: STPA experimental timeline (FIG. 4A), and results of Male C57BL/6 mice administered either vehicle or 31b via i.p. injection at 60 min or 120 min prior to training in STPA (FIG. 4B). […] Memory retention was measured as latency to enter the dark compartment 24 h after training. Data represented as mean and s.e.m.
The STPA apparatus consisted of an acrylic box with an illuminated compartment connected to a darkened compartment by a small guillotine door. Mice were placed in the illuminated side and were trained against their natural tendency to translocate to the dark side using an aversive stimulus (shock via electrified floor grading). Memory consolidation is measured as the latency times to enter the dark compartment 24 hr after training.
All procedures were performed under the approved IACUC protocol #108451. Male C57BL/6 mice (Envigo), N=9 per group, were habituated at the animal facility for at least 14 days. Ear tags were applied and animals weighed. 2 hr prior to the drug adminstration the mice were individually acclimated to the illuminated compartment to assess tendency to enter the dark chamber (measured in seconds). In this phase no shock was be delivered. […] The mice were then administered either vehicle (95 [0.9% NaCl]:5 [DMSO]) or 31b (0.1, 1, 10, or 20 mg/kg) via i.p. injection (50 μL) at 1 h or 2 h prior to training. […] Mice were individually placed into the light compartment and upon translocation to the dark compartment the guiltine door closed and the mice were trained by delivering a mild adversive stimulus (0.5 mA) via the electrified floor grading of the dark chamber. Each mouse was held in the dark chamber for 30 seconds, then returned to their cage for 120 seconds before the second training session. […] Memory retention was measured 24 hours after training by placing the same mouse in the light chamber and measuring latency to enter the dark chamber (no aversive stimulus is delivered during the retention test). Data was analyzed by one way ANOVA analysis with Dunnett's post-hoc test.

Data set [4] concerns CREB phosphorylation at Ser-133. Briefly: In vivo pharmacodynamics, hippocampal pCREB:tCREB by ELISA. As to conditions: scopolamine treated mice plus 31b 20 or 40 mg/kg ip.
[5] abbreviates: 20 mg/kg i.p. once daily for 6 days beginning 12 hr after pMCAO, day 7.

Entries after “also recorded” stand apart in the source; their conditions may differ.

Turning to `CC1CCN(Cc2no[n+]([O-])c2-c2ccc(F)cc2)CC1` [31b], in data set [1] (20 mg/kg i.p. once daily for 6 days after pMCAO, TTC staining, p=0.11), the Infarct volume reduction is around 30%. Further, the “BDNF levels relative to control animals” value in data set [1] (20 mg/kg i.p. once daily for 6 days after pMCAO, WB, p=0.07) is “double the levels of control animals”. In data set [1] (setting [5]), the “Behavioral functional recovery, neurologic deficit scoring (NDS)” value is “reverses neurologic deficit; also recorded: significant improvement” and the “Behavioral functional recovery, rotarod” value is given as “improves rotarod performance; also recorded: significant improvement”. Besides, the half-life in data set [2] is around 11 min. For the same compound, in data set [3] (20 mg/kg i.p. 2 hr prior to training, scopolamine 1 mg/kg i.p. 30 min prior to training, 24 hr after training), the “Latency to enter the dark compartment” value is 237 s. For the same compound, in data set [3] (mice, i.p., scopolamine 1 mg/kg), the “Reversal of scopolamine induced amnesia / memory impairment in STPA” value is listed as “reverses scopolamine induced memory impairment; also recorded: capable of reversing scopolamine induced amnesia”. In addition, in data set [4], the “Hippocampal pCREB:tCREB ratio” value is “trends toward reversal”.

Values taken from patent US10913732B2, “Furoxans as therapies for neurodegenerative disorders” (The University of Toledo, priority 2016, dated 2021).
